Measurements: patent US6469059B1, “Fungicidal composition and method for disease control of paddy-rice plants” (BASF Aktiengesellschaft, priority 1999, dated 2002)
Read-outs that look alike come from different tables or passages of the source.

How the values were obtained:
Format in all cases: in vivo
[1] = tested on: Sheath blight (Rhizoctonia solani); assay: Preventive effect by paddy water application against Sheath blight; conditions: water-applied 7 days before inoculation
Protocol: Preventive Effect by Paddy Water Application Against Sheath Blight (Rhizoctonia solani)
By using pots of 1/8000 are, the compounds prepared according to the Formulations Examples which were diluted with water to a predetermined concentration were water-applied to ten-leave-stage rice plant (Kin-maze) cultivated under flooding. The treated pots were allowed to stand in a greenhouse for seven days, and the fungus nuclei of Sheath blight (Rhizoctonia solani) was inoculated at the root of the plant. Then, the plant was allowed to stand under humid conditions at 30° C. for one week, and then, the number of the disease lesion was determined to obtain the preventive index according to the criterion of Test Example 1.

[2] = tested on: Helminthosporium leaf spot (Cochliobolus miyabeanus); assay: Preventive effect by application against Helminthosporium leaf spot (foliar spray); conditions: foliar spray before inoculation, six-leave-stage rice
[3] = tested on: Blast (Pyricularia oryzae); conditions: foliar spray before inoculation, rice plant (Kin-maze)
[4] = tested on: Blast (Pyricularia oryzae); conditions: granules water-applied 7 days before inoculation
[5] = tested on: Blast (Pyricularia oryzae); conditions: sprayed one day after inoculation
[6] = tested on: Sheath blight (Rhizoctonia solani); assay: Preventive effect by application against Sheath blight (foliar spray); conditions: foliar spray before inoculation, ten-leave-stage rice
Protocol: Preventive Effect by Application Against Sheat Blight (Rhizoctonia solani)
The wettable powders prepared according to the Formulation Examples which were diluted with water to a predetermined concentrations were sprayed to the stems and leaves of ten-leave-stage of rice plant (Kin-maze) cultivated in pots under flooding. After air-drying, the fungous nucleiof Sheath blight (Rhizoctonia solani) was inoculated at the root of the plant. After that, the plant was allowed to stand under humid conditions at 30° C. for one week, and then, the number of the disease lesion was determined to obtain the preventive index according to the criterion of Test Example 1.

## CCCCC(O)(Cn1cncn1)c1ccc(Cl)cc1Cl (racemic) [Compound 10, (RS)-2-(2,4-dichlorophenyl)-1-(1H-1,2,4-triazol-1-yl)hexan-2-ol]
[1]; 10 g/10a active ingredient
  Preventive index: 3 (Preventive value 60 to 84%)
[2]; 10 ppm active ingredient
  Preventive index: 3 (Preventive value 60 to 84%)

## CC(C)Oc1cccc(NC(=O)c2ccccc2C(F)(F)F)c1 [Compound 1, α,α,α-trifluoro-3′-isopropoxy-O-toluanilide]
[3]; 500 ppm active ingredient
  Preventive index: 0
[4]; 200 g/10a active ingredient
  Preventive index: 0
[5]; 200 ppm active ingredient
  Preventive index: 0
[6]; 10 ppm active ingredient
  Preventive index: 3 (Preventive value 60 to 84%)

## Cc1ccccc1C(=O)Nc1cccc(OC(C)C)c1 [Compound 2, 3′-isopropoxy-2-methylbenzanilide]
[3]; 500 ppm active ingredient
  Preventive index: 0
[6]; 10 ppm active ingredient
  Preventive index: 2

## Cc1nc(C(F)(F)F)c(C(=O)Nc2c(Br)cc(OC(F)(F)F)cc2Br)s1 [Compound 3, N-(2,6-dibromo-4-trifluoromethoxyphenyl)-2-methyl-4-trifluoromethylthiazole-5-carboxamide]
[3]; 500 ppm active ingredient
  Preventive index: 0
[6]; 10 ppm active ingredient
  Preventive index: 3 (Preventive value 60 to 84%)

## Cc1nn(C)c(Cl)c1C(=O)Nc1cccc2c1COC2(C)C [Compound 4, 5-chloro-1,3-dimethyl-N-(1,1-dimethyl-2-oxa-4-indanyl)pyrazole-4-carboxamide]
[4]; 200 g/10a active ingredient
  Preventive index: 0

## OCC1=C[C@H](N[C@H]2C[C@H](CO)[C@@H](O[C@@H]3O[C@H](CO)[C@@H](O)[C@H](O)[C@H]3O)[C@H](O)[C@H]2O)[C@H](O)[C@@H](O)[C@@H]1O [Compound 5, validamycin]
[3]; 500 ppm active ingredient
  Preventive index: 0
[6]; 10 ppm active ingredient
  Preventive index: 3 (Preventive value 60 to 84%)

## O=C(Nc1ccccc1)N(Cc1ccc(Cl)cc1)C1CCCC1 [Compound 6, 1-(4-chlorobenzyl)-1-cyclopentyl-3-phenylurea]
[3]; 500 ppm active ingredient
  Preventive index: 0
[6]; 10 ppm active ingredient
  Preventive index: 3 (Preventive value 60 to 84%)

## Cc1c(Cl)cc(-c2ccc(=O)[nH]n2)cc1Cl [Compound 7, 6-(3,5-dichloro-4-methylphenyl)-3(2H)-pyridazinone]
[6]; 10 ppm active ingredient
  Preventive index: 2

## CC(C)NC(=O)N1CC(=O)N(c2cc(Cl)cc(Cl)c2)C1=O [Compound 8, 3-(3,5-dichlorophenyl)-N-isopropyl-2,4-dioxoimidazolidine-1-carboxamide]
[1]; 10 g/10a active ingredient
  Preventive index: 3 (Preventive value 60 to 84%)
[2]; 10 ppm active ingredient
  Preventive index: 3 (Preventive value 60 to 84%)

## CCCCC(C#N)(Cn1cncn1)c1ccc(Cl)cc1 (stereo not shown) [Compound 9, 2-p-chlorophenyl-2-(1H-1,2,4-triazol-1-ylmethyl)hexanenitrile]
[1]; 10 g/10a active ingredient
  Preventive index: 3 (Preventive value 60 to 84%)
[2]; 10 ppm active ingredient
  Preventive index: 3 (Preventive value 60 to 84%)

## C/C(=N/Nc1nc(C)cc(C)n1)c1ccccc1C [Compound 11, (Z)-2′-methylacetophenone 4,6-dimethylpyrimidin-2-ylhydrazone]
[1]; 10 g/10a active ingredient
  Preventive index: 3 (Preventive value 60 to 84%)
[2]; 10 ppm active ingredient
  Preventive index: 3 (Preventive value 60 to 84%)

## CC(=O)O.CC(=O)O.CC(=O)O.N=C(N)NCCCCCCCCNCCCCCCCCNC(=N)N [Compound 12, 1,1′-iminodi(octamethylene)diguanidinium triacetate]
[1]; 10 g/10a active ingredient
  Preventive index: 3 (Preventive value 60 to 84%)
[2]; 10 ppm active ingredient
  Preventive index: 3 (Preventive value 60 to 84%)

## CO/C=C(/C(=O)OC)c1ccccc1Oc1cc(Oc2ccccc2C#N)ncn1 [Compound 13, methyl (E)-2-{2-[6-(2-cyanophenoxy)pyrimidin-4-yloxy]phenyl}-3-methoxy-acrylate]
[4]; 10 g/10a active ingredient
  Preventive index: 3 (Preventive value 60 to 84%)
[6]; 10 ppm active ingredient
  Preventive index: 3 (Preventive value 60 to 84%)
[2]; 10 ppm active ingredient
  Preventive index: 3 (Preventive value 60 to 84%)

## CNC(=O)/C(=N/OC)c1ccccc1Oc1ccccc1 [Compound 14, 2-methoxyimino-N-methyl-2-(2-phenoxy)phenyl-acetamide]
[4]; 50 g/10a active ingredient
  Preventive index: 3 (Preventive value 60 to 84%)
[6]; 50 ppm active ingredient
  Preventive index: 3 (Preventive value 60 to 84%)
[2]; 50 ppm active ingredient
  Preventive index: 3 (Preventive value 60 to 84%)

## CCOP(=O)(Sc1ccccc1)Sc1ccccc1 [Compound 16, O-ethyl-S,S-diphenyldithiophosphate]
[3]; 50 ppm active ingredient
  Preventive index: 3 (Preventive value 60 to 84%)

## C[C@H]1O[C@H](O[C@H]2[C@H](O)[C@@H](O)[C@@H](O)[C@H](O)[C@@H]2O)[C@@H](N)C[C@@H]1NC(=N)C(=O)O [Compound 19, kasugamycin]
[5]; 20 ppm active ingredient
  Preventive index: 4 (Preventive value 85 to 94%)

## CC(NC(=O)C(C#N)C(C)(C)C)c1ccc(Cl)cc1Cl (stereo not shown) [Compound 21, N-[1-(2,4-dichlorophenyl)ethyl]-2-cyano-3,3-dimethylbuthaneamide]
[3]; 5 ppm active ingredient
  Preventive index: 4 (Preventive value 85 to 94%)

## O=C1CCc2cccc3c2N1CC3 [Compound 22, 1,2,5,6-tetrahydropyrrolo(3,2,1-i,j)quinolin-4-one]
[4]; 10 g/10a active ingredient
  Preventive index: 4 (Preventive value 85 to 94%)

## C=CCOC1=NS(=O)(=O)c2ccccc21 [Compound 23, 3-allyloxy-1,2-benzoisothiazole-1,1-dioxide]
[4]; 50 g/10a active ingredient
  Preventive index: 3 (Preventive value 60 to 84%)

## CSC(=O)c1cccc2nnsc12 [Compound 24, S-methyl-benzo(1,2,3)-thiadiazole-7-carbothiolate]
[4]; 50 g/10a active ingredient
  Preventive index: 3 (Preventive value 60 to 84%)

## CC(Oc1ccc(Cl)cc1Cl)C(=O)NC(C)(C#N)C(C)C (stereo not shown) [Compound A, N-(1-cyano-1,2-dimethylpropyl)-2-(2,4-dichlorophenoxy)propanamide]
[4]; 10 g/10a active ingredient
  Preventive index: 3 (Preventive value 60 to 84%)
[6]; 200 ppm active ingredient
  Preventive index: 0
[1]; 200 g/10a active ingredient
  Preventive index: 0
[2]; 200 ppm active ingredient
  Preventive index: 0
